Results: PubChem BioAssay (NCI)
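48-hour exposure; five concentrations; linearly interpolated endpoints. The concentration for full growth arrest is given as TGI.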

Legend:
Experiment in all cases: NCI tumour cell line growth inhibition, 48 h
SW-620 colon = system: SW-620 colon
LOX IMVI melanoma = system: LOX IMVI melanoma
SNB-19 CNS = system: SNB-19 CNS
HT29 colon = system: HT29 colon
CCRF-CEM leukemia = system: CCRF-CEM leukemia
RXF 393 renal = system: RXF 393 renal
NCI/ADR-RES ovarian = system: NCI/ADR-RES ovarian
EKVX NSCLC = system: EKVX NSCLC
HCC-2998 colon = system: HCC-2998 colon
A549 NSCLC = system: A549 NSCLC
BT-549 breast = system: BT-549 breast
NCI-H460 lung = system: NCI-H460 lung
786-0 renal = system: 786-0 renal
DU-145 prostate = system: DU-145 prostate
UO-31 renal = system: UO-31 renal
PC-3 prostate = system: PC-3 prostate
OVCAR-8 ovarian = system: OVCAR-8 ovarian
MCF7 breast = system: MCF7 breast
M14 melanoma = system: M14 melanoma
SNB-75 CNS = system: SNB-75 CNS
OVCAR-5 ovarian = system: OVCAR-5 ovarian
HS 578T breast = system: HS 578T breast
IGROV1 ovarian = system: IGROV1 ovarian
UACC-257 melanoma = system: UACC-257 melanoma
OVCAR-4 ovarian = system: OVCAR-4 ovarian
MOLT-4 leukemia = system: MOLT-4 leukemia
MDA-MB-435 = system: MDA-MB-435
COLO 205 colon = system: COLO 205 colon
ACHN renal = system: ACHN renal
OVCAR-3 ovarian = system: OVCAR-3 ovarian
NCI-H522 lung = system: NCI-H522 lung
U251 CNS = system: U251 CNS
SN12C renal = system: SN12C renal
HOP-62 NSCLC = system: HOP-62 NSCLC
MDA-MB-231 breast = system: MDA-MB-231 breast
SK-MEL-5 melanoma = system: SK-MEL-5 melanoma
NCI-H226 lung = system: NCI-H226 lung
CAKI-1 renal = system: CAKI-1 renal
HCT-116 colon = system: HCT-116 colon
TK-10 renal = system: TK-10 renal
UACC-62 melanoma = system: UACC-62 melanoma
SK-OV-3 ovarian = system: SK-OV-3 ovarian
HL-60(TB) leukemia = system: HL-60(TB) leukemia
HOP-92 NSCLC = system: HOP-92 NSCLC
HCT-15 colon = system: HCT-15 colon
SK-MEL-2 melanoma = system: SK-MEL-2 melanoma
SF-295 CNS = system: SF-295 CNS
KM12 colon = system: KM12 colon
NCI-H23 lung = system: NCI-H23 lung
SF-268 CNS = system: SF-268 CNS
SF-539 CNS = system: SF-539 CNS
SK-MEL-28 melanoma = system: SK-MEL-28 melanoma

Structure (SMILES): COc1cccc(/C=C2/Sc3scc(-c4ccccc4)[n+]3C2=O)c1O
- TGI (SW-620 colon): 43.8 µM
- TGI (LOX IMVI melanoma): 36.4 µM
- TGI (SNB-19 CNS): 67 µM
- TGI (HT29 colon): 37.3 µM
- TGI (CCRF-CEM leukemia): 30.4 µM
- TGI (RXF 393 renal): 29.8 µM
- TGI (NCI/ADR-RES ovarian): 42.3 µM
- TGI (EKVX NSCLC): 64.6 µM
- TGI (HCC-2998 colon): 30.7 µM
- TGI (A549 NSCLC): > 100 µM
- TGI (BT-549 breast): 45.1 µM
- TGI (NCI-H460 lung): 37.9 µM
- TGI (786-0 renal): 32.1 µM
- TGI (DU-145 prostate): 56.9 µM
- TGI (UO-31 renal): 26.9 µM
- TGI (PC-3 prostate): > 100 µM
- TGI (OVCAR-8 ovarian): 35.4 µM
- TGI (MCF7 breast): > 100 µM
- TGI (M14 melanoma): > 100 µM
- TGI (SNB-75 CNS): > 100 µM
- TGI (OVCAR-5 ovarian): > 100 µM
- TGI (HS 578T breast): > 100 µM
- TGI (IGROV1 ovarian): 38.9 µM
- TGI (UACC-257 melanoma): 44.9 µM
- TGI (OVCAR-4 ovarian): 74.4 µM
- TGI (MOLT-4 leukemia): 49.5 µM
- TGI (MDA-MB-435): > 100 µM
- TGI (COLO 205 colon): > 100 µM
- TGI (ACHN renal): 40.9 µM
- TGI (OVCAR-3 ovarian): 95.3 µM
- TGI (NCI-H522 lung): 52.8 µM
- TGI (U251 CNS): 43.3 µM
- TGI (SN12C renal): 36.8 µM
- TGI (HOP-62 NSCLC): 68.4 µM
- TGI (MDA-MB-231 breast): 79.2 µM
- TGI (SK-MEL-5 melanoma): 31.1 µM
- TGI (NCI-H226 lung): 40.5 µM
- TGI (CAKI-1 renal): 47.7 µM
- TGI (HCT-116 colon): 29.2 µM
- TGI (TK-10 renal): 68.4 µM
- TGI (UACC-62 melanoma): 30.5 µM
- TGI (SK-OV-3 ovarian): 70.4 µM
- TGI (HL-60(TB) leukemia): 39.6 µM
- TGI (HOP-92 NSCLC): 51.2 µM
- TGI (HCT-15 colon): 29.9 µM
- TGI (SK-MEL-2 melanoma): 89.8 µM
- TGI (SF-295 CNS): > 100 µM
- TGI (KM12 colon): 40.4 µM
- TGI (NCI-H23 lung): 38.9 µM
- TGI (SF-268 CNS): > 100 µM
- TGI (SF-539 CNS): 47.6 µM
- TGI (SK-MEL-28 melanoma): 40.9 µM
